# Laboratory results: US11447484B2, “Cyclic compound having dopamine D3 receptor antagonistic effect” (Shionogi & Co., Ltd., priority 2018, dated 2022)
# pKi: −log10 of the molar value.
# Key:
# [1] = molecular target: human recombinant D2 receptor (Homo sapiens (Human), UniProt P14416); experiment: Test of binding inhibition for dopamine D2 receptor; settings: Jump-In HEK cell membranes, 1.2 nM [3H]-Methylspiperone, 120 min at 25° C.; read-out: hD2_Ki
# Experimental: Test Example 2: Test of Binding Inhibition for Dopamine D2 Receptor
# (§1) (Experimental Conditions)
# Cell membranes: Jump-In HEK cell membranes expressing human recombinant D2 receptor (2 μg/well)
# (§2) Buffer solution: 50 mM Tris-HCl (35409-45, Nacalai Tesque) (pH 7.4) containing 120 mM NaCl (31320-05, Nacalai Tesque), 1 mM MgCl2.6H2O (20909-55, Nacalai Tesque), 5 mM KCl (28514-75, Nacalai Tesque) and 2 mM CaCl2 (067-31, NAKARAI CHEMICALS, LTD.)
# Radioligand: (final concentration) 1.2 nM [^3H]-Methylspiperone ([^3H—N-methyl-]-Methylspiperone, NET-856, 83.8 Ci/mmol, PerkinElmer)
# Non-specific ligand: (final concentration) 10 μM Butaclamol [(+)-Butaclamol Hydrochloride, D033; Sigma]
# (§3) SPA beads solution: SPA beads [WGA PVT SPA Scintillation Beads, RPNQ0001 (500 mg), RPNQ0060 (2 g), PerkinElmer] (0.2 mg/well)
# (§4) Incubation time and temperature: 120 min at 25° C.
# (§5) Butaclamol or the compounds of the present invention were weighed and DMSO was added to make a 10 mM solution. This solution was diluted to each concentration.
# [^3H]-Methylspiperone was weighed and the buffer solution was added to make a 3.6 nM solution.
# (§6) SPA beads were weighed and stirred in water to make a 50 mg/mL solution. Using this solution, a mixture with the cell membranes was prepared.
# (§7) 225 nL of the solutions of the non-specific ligand or the compounds of the present invention at each concentration (in case of vehicle, final concentration 0.3% DMSO) were added in each well of a 384-well white/clear bottom microplate (3706, Corning). Jump-In HEK Cell membranes (final reaction amount: 2 μg protein/well), the SPA bead solution (final reaction amount: 0.2 mg/well) and the buffer solution were mixed and the mixed solution was left still for 1 hour or more at 4° C. Then, 50 μL of the mixture was added to each well of the plate. In addition, 25 μL of 3.6 nM [^3H]-Methylspiperone (final concentration: 1.2 nM) was added to each well. The plate was sealed by putting TopSeal-A 96/384 well (6050185, PerkinElmer) on the top of the plate, mixed using stirring deaerator (Well Tornado, FK-62, Sakaki-elc.) and incubated for 120 min at 25° C. After incubation, the radioactivity of [^3H]-Methylspiperone which was bonded to D2 receptor was determined by liquid scintillation counter (1450 Microbeta, PerkinElmer) in each well. Non-specific binding was calculated based on the radioactivity of [^3H]-Methylspiperone in the presence of 10 μM non-labeled Butaclamol. The total binding was calculated using the radioactivity of [^3H]-Methylspiperone in the absence of the compounds of the present invention (vehicle). The Ki values were calculated from dose-response curves.
# (§8) Binding activities of the compounds of the present invention were calculated from the following Binding Inhibition Rate (%): Inhibition Rate(%)=[1−(c−a)/(b−a)]×100 • a: Average cpm of non-specific binding • b: Average cpm of total binding • c: Cpm in the presence of each test compound
# [2] = molecular target: P-gp (human MDR1-expressing cells) (Homo sapiens (Human), UniProt P08183); experiment: P-gp substrate test; assay type: in vitro ADME; settings: efflux ratio (B→A/A→B) of MDR1-expressing cells compared with parent cells, Transwell monolayer
# Experimental: Test Example 14: P-gp Substrate Test
# The compound of the present invention was added to one side of Transwell (registered trademark, CORNING) where human MDR1-expressing cells or parent cells have been monolayer-cultured. The cells were reacted for a constant time. The membrane permeability coefficients from the apical side toward the basolateral side (A→B) and from the basolateral side toward the apical side (B→A) were calculated for the MDR1-expressing cells or the parent cells, and the efflux ratio (ER; ratio of the membrane permeability coefficients of B→A and A→B) values of the MDR1-expressing cells and the parent cells were calculated. The efflux ratio (ER) values of the MDR1-expressing cells and the parent cells were compared to confirm whether or not the compound of the present invention would be a P-gp substrate.
# [3] = molecular target: human recombinant D3 receptor (Homo sapiens (Human), UniProt P35462); experiment: Test of binding inhibition for dopamine D3 receptor; settings: Jump-In HEK cell membranes, 2 nM [3H]-Methylspiperone, 120 min at 25° C.; read-out: hD3_Ki
# Experimental: Test Example 1: Test of Binding Inhibition for Dopamine D3 Receptor
# as §1
# Cell membranes: Jump-In HEK cell membranes expressing human recombinant D3 receptor (4 μg/well)
# as §2
# Radioligand: (final concentration) 2 nM [^3H]-Methylspiperone ([^3H—N-methyl-]-Methylspiperone, NET-856, 83.8 Ci/mmol, PerkinElmer)
# Non-specific ligand: (final concentration) 10 μM Butaclamol [(+)-Butaclamol Hydrochloride, D033, Sigma]
# as §3, §4, §5
# [^3H]-Methylspiperone was weighed and the buffer solution was added to make a 6 nM solution.
# as §6
# as §7, with “amount: 4” for “amount: 2”, “SPA beads” for “SPA bead”, “of 6” for “of 3.6”, “concentration: 2” for “concentration: 1.2”, “(6050185, PerkinElmer, Inc.)” for “(6050185, PerkinElmer)”, “to D3” for “to D2”
# as §8
# Sequence of P-gp (human MDR1-expressing cells) (P08183 whole entry): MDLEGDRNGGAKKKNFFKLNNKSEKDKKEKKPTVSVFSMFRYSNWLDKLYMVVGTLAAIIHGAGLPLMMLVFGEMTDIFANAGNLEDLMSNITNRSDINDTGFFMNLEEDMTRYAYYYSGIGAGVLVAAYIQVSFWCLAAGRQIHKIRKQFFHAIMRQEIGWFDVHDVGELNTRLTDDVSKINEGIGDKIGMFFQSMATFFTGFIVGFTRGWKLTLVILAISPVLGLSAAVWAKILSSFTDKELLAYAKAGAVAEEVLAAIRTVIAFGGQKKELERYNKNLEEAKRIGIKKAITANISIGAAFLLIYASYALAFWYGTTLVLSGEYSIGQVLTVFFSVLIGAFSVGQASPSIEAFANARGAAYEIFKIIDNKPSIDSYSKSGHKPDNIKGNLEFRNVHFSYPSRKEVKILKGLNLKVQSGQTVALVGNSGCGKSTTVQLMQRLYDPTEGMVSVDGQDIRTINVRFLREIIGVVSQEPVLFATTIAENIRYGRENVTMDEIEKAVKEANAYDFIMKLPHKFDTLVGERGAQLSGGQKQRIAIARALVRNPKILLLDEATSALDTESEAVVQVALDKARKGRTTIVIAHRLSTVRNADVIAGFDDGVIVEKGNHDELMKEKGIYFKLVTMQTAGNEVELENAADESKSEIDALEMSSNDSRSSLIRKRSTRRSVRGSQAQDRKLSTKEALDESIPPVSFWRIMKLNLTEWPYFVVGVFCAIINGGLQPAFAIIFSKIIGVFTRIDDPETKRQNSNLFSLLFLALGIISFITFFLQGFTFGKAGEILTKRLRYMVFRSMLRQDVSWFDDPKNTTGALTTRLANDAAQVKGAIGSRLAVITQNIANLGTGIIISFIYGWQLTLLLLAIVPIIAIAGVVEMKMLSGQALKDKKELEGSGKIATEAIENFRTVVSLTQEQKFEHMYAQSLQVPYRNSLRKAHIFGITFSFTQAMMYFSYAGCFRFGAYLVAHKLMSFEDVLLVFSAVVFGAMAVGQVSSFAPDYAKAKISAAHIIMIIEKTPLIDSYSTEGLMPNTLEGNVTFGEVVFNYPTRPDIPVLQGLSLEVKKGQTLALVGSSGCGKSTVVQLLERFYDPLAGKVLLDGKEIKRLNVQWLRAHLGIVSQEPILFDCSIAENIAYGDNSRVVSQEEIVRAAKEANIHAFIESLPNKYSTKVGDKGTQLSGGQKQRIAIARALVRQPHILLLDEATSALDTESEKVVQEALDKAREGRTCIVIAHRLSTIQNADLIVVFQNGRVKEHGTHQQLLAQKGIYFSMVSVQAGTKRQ
# Sequence of human recombinant D3 receptor (P35462 whole entry): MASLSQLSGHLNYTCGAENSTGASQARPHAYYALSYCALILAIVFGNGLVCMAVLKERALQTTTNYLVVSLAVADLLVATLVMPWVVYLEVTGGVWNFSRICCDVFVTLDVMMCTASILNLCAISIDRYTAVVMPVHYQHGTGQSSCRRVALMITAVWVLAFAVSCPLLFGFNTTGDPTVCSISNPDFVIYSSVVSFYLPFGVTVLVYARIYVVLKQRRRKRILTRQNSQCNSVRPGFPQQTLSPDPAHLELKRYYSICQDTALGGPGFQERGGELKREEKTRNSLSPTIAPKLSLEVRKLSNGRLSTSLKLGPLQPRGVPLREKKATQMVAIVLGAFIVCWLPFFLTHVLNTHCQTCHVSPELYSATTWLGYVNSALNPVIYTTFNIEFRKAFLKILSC
# Sequence of human recombinant D2 receptor (P14416 whole entry): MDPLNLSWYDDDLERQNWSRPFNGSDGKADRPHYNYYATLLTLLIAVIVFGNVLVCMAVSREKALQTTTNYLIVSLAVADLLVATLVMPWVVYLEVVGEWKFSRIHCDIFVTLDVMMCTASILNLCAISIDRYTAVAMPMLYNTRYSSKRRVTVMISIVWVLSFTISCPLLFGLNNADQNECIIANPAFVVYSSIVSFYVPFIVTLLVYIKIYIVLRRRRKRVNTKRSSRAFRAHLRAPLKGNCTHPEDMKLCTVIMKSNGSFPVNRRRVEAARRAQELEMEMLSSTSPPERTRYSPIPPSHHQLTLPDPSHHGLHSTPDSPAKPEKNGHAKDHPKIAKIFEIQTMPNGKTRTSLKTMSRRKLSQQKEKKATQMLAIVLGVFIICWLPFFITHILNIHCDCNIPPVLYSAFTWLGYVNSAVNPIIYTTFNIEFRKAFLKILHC
SMILES,pKi [1],P-gp ER ratio [2],pKi [3]
CCc1cc([C@]23C[C@H]2CN(CC[C@H]2CC[C@H](NC(=O)Cc4cnc(C)o4)CC2)C3)no1 [Compound I-052],6.04,2.4,9.24
Cc1ncc(OCC(=O)N[C@H]2CC[C@H](CCN3C[C@@H]4C[C@]4(c4cc(C(C)(F)F)on4)C3)CC2)cn1 [Compound I-046],6.48,1.9,9.70
Cn1cc2c(C(=O)NN3CCC(CCN4C[C@@H]5C[C@]5(c5cc(C(C)(F)F)on5)C4)CC3)cccc2n1 [Compound I-035],6.06,,9.62
CCc1cc([C@]23C[C@H]2CN(CC[C@H]2CC[C@H](NC(=O)Cc4ncc(C)o4)CC2)C3)no1 [Compound I-054],6.11,,8.92
Cn1cc(CC(=O)N[C@H]2CC[C@H](CCN3C[C@@H]4C[C@]4(c4cc(C(C)(F)F)on4)C3)CC2)cn1 [Compound I-043],6.57,,9.35
CCc1cc([C@]23C[C@H]2CN(CC[C@H]2CC[C@H](NC(=O)Cc4cc(C)no4)CC2)C3)no1 [Compound I-055],6.07,,9.64
CCc1cc([C@]23C[C@H]2CN(CC[C@H]2CC[C@H](NC(=O)c4ccc(F)c5nn(C)cc45)CC2)C3)no1 [Compound I-050],6.70,,9.38
Cc1cc(CC(=O)N[C@H]2CC[C@H](CCN3C[C@@H]4C[C@]4(c4cc(C(C)(F)F)on4)C3)CC2)on1 [Compound I-042],5.89,,10.21
Cc1cnc(CC(=O)N[C@H]2CC[C@H](CCN3C[C@@H]4C[C@]4(c4cc(C(C)(F)F)on4)C3)CC2)o1 [Compound I-040],6.46,,9.25
O=C(N[C@H]1CC[C@H](CCN2CCC(n3nccc3-c3ccccc3)CC2)CC1)c1cccc2ncccc12 [Compound I-007],< 5.74,,8.57
Cc1ncc(CC(=O)N[C@H]2CC[C@H](CCN3CC4CC4(c4cc(CF)on4)C3)CC2)s1 (some centres unmarked) [Compound I-029],5.96,,8.66
CCc1cc(C23CC2CN(CC[C@H]2CC[C@H](NC(=O)c4cccc5nn(C)cc45)CC2)C3)no1 (some centres unmarked) [Compound I-034],6.14,1.3,9.15
Cn1cc(OCC(=O)N[C@H]2CC[C@H](CCN3C[C@@H]4C[C@]4(c4cc(C(C)(F)F)on4)C3)CC2)cn1 [Compound I-044],6.66,,9.08
CCC(F)(F)c1conc1C1CCN(CC[C@H]2CC[C@H](NC(=O)Cc3nnc(C)s3)CC2)CC1 [Compound I-015],7.17,,9.89
O=C(N[C@H]1CC[C@H](CCN2CCC(c3nocc3C3CC3)CC2)CC1)c1cccc2ncccc12 [Compound I-004],6.80,,9.22
Cc1ncc(CC(=O)N[C@H]2CC[C@H](CCN3CCC(c4noc(C)c4C(C)(F)F)CC3)CC2)s1 [Compound I-009],6.48,,8.72
CCC(F)(F)c1conc1C1CCN(CC[C@H]2CC[C@H](NC(=O)c3cccc4nn(C)cc34)CC2)CC1 [Compound I-016],7.48,,10.07
CCc1cc([C@]23C[C@H]2CN(CC[C@H]2CC[C@H](NC(=O)Cc4cnn(C)n4)CC2)C3)no1 [Compound I-053],5.96,1.9,9.32
O=C(N[C@H]1CC[C@H](CCN2CCC(c3nocc3-c3cccc(F)c3)CC2)CC1)c1cccc2ncccc12 [Compound I-003],7.44,,10.03
Cn1cc(CC(=O)N[C@H]2CC[C@H](CCN3C[C@@H]4C[C@]4(c4cc(C5CC5)on4)C3)CC2)cn1 [II-3],6.14,,9.44
CN1Cc2c(C(=O)N[C@H]3CC[C@H](CCN4C[C@@H]5C[C@]5(c5cc(C(C)(F)F)on5)C4)CC3)cccc2C1=O [Compound I-045],7.07,,9.89
CCc1cc([C@]23C[C@H]2CN(CC[C@H]2CC[C@H](NC(=O)Cc4cnn(C)c4)CC2)C3)no1 [Compound I-056],6.00,,9.21
Cn1ncc(CC(=O)N[C@H]2CC[C@H](CCN3C[C@@H]4C[C@]4(c4cc(C(C)(F)F)on4)C3)CC2)n1 [Compound I-039],6.52,,9.41
Cn1cc2c(C(=O)N[C@H]3CC[C@H](CCN4CCN(c5nocc5C(C)(F)F)CC4)CC3)cccc2n1 [Compound I-017],7.28,,9.68
Cn1cc2c(C(=O)N[C@H]3CC[C@](F)(CCN4CCC(c5nocc5C(C)(F)F)CC4)CC3)cccc2n1 [Compound I-026],6.60,,9.26
Cn1cc2c(C(=O)N[C@H]3CC[C@H](CCN4CC5CC5(c5cc(C(F)F)on5)C4)CC3)cccc2n1 (some centres unmarked) [Compound I-032],6.70,,9.40
